From PubChem BioAssay AID330 (DTP/NCI, 2004)
Values joined by “and” are separate entries in the source; they are usually repeats but may differ in a detail not shown here. Equal entries are not always repeated. Toxic doses and inconclusive results are not listed.

System: P388 leukemia ip, CD2F1 mice, survival T/C
Assay: NCI In Vivo Anticancer Drug Screen. Data for tumor model P388 Leukemia (intraperitoneal) in CD2F1 (CDF1) mice
Conditions: endpoint: median survival time, higher = longer survival
Procedure, shortened: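 Mice carrying the transplanted tumor received test compound or vehicle. Survival was recorded in each group, and the value is the treated-group measurement divided by that of the vehicle-treated control group.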

[1] = dose: 50.0 mg/kg/injection, schedule: Q01DX005 (ip), vehicle: saline with Tween-80
[2] = dose: 50.0 mg/kg/injection, schedule: Q01DX005 (ip), vehicle: Klucel (hydroxypropylcellulose) (HPC)
[3] = dose: 100.0 mg/kg/injection, schedule: Q01DX005 (ip), vehicle: Klucel (hydroxypropylcellulose) (HPC)
[4] = dose: 200.0 mg/kg/injection, schedule: Q01DX005 (ip), vehicle: Klucel (hydroxypropylcellulose) (HPC)
[5] = dose: 100.0 mg/kg/injection, schedule: Q01DX005 (ip), vehicle: saline with Tween-80
[6] = dose: 200.0 mg/kg/injection, schedule: Q01DX005 (ip), vehicle: saline with Tween-80
[7] = dose: 60.0 mg/kg/injection, schedule: Q01DX005 (ip), vehicle: saline with Tween-80
[8] = dose: 120.0 mg/kg/injection, schedule: Q01DX005 (ip), vehicle: saline with Tween-80
[9] = dose: 240.0 mg/kg/injection, schedule: Q01DX005 (ip), vehicle: saline with Tween-80
[10] = dose: 50.0 mg/kg/injection, schedule: Q01DX009 (ip), vehicle: saline with Tween-80
[11] = dose: 50.0 mg/kg/injection, schedule: Q01DX009 (ip), vehicle: Klucel (hydroxypropylcellulose) (HPC)
[12] = dose: 100.0 mg/kg/injection, schedule: Q01DX009 (ip), vehicle: Klucel (hydroxypropylcellulose) (HPC)
[13] = dose: 200.0 mg/kg/injection, schedule: Q01DX009 (ip), vehicle: Klucel (hydroxypropylcellulose) (HPC)
[14] = dose: 50.0 mg/kg/injection, schedule: Q01DX009 (ip), vehicle: saline
[15] = dose: 200.0 mg/kg/injection, schedule: Q01DX009 (ip), vehicle: saline

## O=c1[nH]c2nc3ccccc3n2c(=O)c2ccccc12
dose: 100.0 mg/kg/injection, schedule: Q01DX001 (ip), vehicle: Klucel (hydroxypropylcellulose) (HPC)
  T/C: 98 % of control
dose: 200.0 mg/kg/injection, schedule: Q01DX001 (ip), vehicle: Klucel (hydroxypropylcellulose) (HPC)
  T/C: 98 % of control
dose: 400.0 mg/kg/injection, schedule: Q01DX001 (ip), vehicle: Klucel (hydroxypropylcellulose) (HPC)
  T/C: 95 % of control

## COc1ccc(C(NCCn2cnc3c2c(=O)n(C)c(=O)n3C)c2ccccc2)cc1 (stereo unspecified)
dose: 6.25 mg/kg/injection, schedule: Q01DX005 (ip), vehicle: alkali diluted with saline
  T/C: 100 % of control
dose: 12.5 mg/kg/injection, schedule: Q01DX005 (ip), vehicle: alkali diluted with saline
  T/C: 100 % of control
dose: 25.0 mg/kg/injection, schedule: Q01DX005 (ip), vehicle: alkali diluted with saline
  T/C: 96 % of control

## CC1(C)NC(=O)[C@]2(C[C@@H](OC(=O)c3ccccc3)C=C2C=O)O1
dose: 25.0 mg/kg/injection, schedule: Q01DX005 (ip), vehicle: saline with Tween-80
  T/C: 109 % of control
[1]
  T/C: 96 % of control

## Cc1cc(N)ccc1-n1cnc2c1c(=O)n(C)c(=O)n2C
dose: 50.0 mg/kg/injection, schedule: Q01DX005 (ip), vehicle: water
  T/C: 109 % of control
dose: 100.0 mg/kg/injection, schedule: Q01DX005 (ip), vehicle: water
  T/C: 111 % of control

## COc1cc(C2SCC(=O)N2c2nnc(C)s2)cc(OC)c1OC (stereo unspecified)
[2]
  T/C: 97 % of control
[3]
  T/C: 89 % of control
[4]
  T/C: 89 % of control

## S=C1N(c2ccc(Br)cc2)C2=Nc3ccccc3SC(=C2N=Nc2ccccc2)N1c1ccc(Cl)cc1
[1]
  T/C: 94 % of control
[5]
  T/C: 90 % of control
[6]
  T/C: 93 % of control

## CO/N=C1\N=C(C)C(=N)N1c1ccccc1
[7]
  T/C: 104 % of control
[8]
  T/C: 99 % of control
[9]
  T/C: 107 % of control

## CCCCCCCCCCCCCCCCN(C(C)C)S(=O)(=O)c1ccc(Cl)c([N+](=O)[O-])c1
dose: 50.0 mg/kg/injection, schedule: Q04DX003 (ip), vehicle: saline sonified
  T/C: 90 % of control
dose: 100.0 mg/kg/injection, schedule: Q04DX003 (ip), vehicle: saline sonified
  T/C: 95 % of control
dose: 200.0 mg/kg/injection, schedule: Q04DX003 (ip), vehicle: saline sonified
  T/C: 95 % of control

## COc1ccc(/C(C#N)=C2\OC(=O)c3ccccc32)cc1OC
dose: 6.25 mg/kg/injection, schedule: Q01DX009 (ip), vehicle: saline with Tween-80
  T/C: 97 % of control
dose: 12.5 mg/kg/injection, schedule: Q01DX009 (ip), vehicle: saline with Tween-80
  T/C: 89 % of control
[10]
  T/C: 90 % of control
dose: 400.0 mg/kg/injection, schedule: Q01DX009 (ip), vehicle: saline with Tween-80
  T/C: 90 % of control

## N#Cc1c2c(n3c1[nH]c(=O)c1ccccc13)CCCC2
[7]
  T/C: 105 % of control
[8]
  T/C: 100 % of control
[9]
  T/C: 99 % of control

## O=S(=O)(NO)c1cccc(S(=O)(=O)NO)c1
dose: 25.0 mg/kg/injection, schedule: Q04DX003 (ip), vehicle: saline
  T/C: 110 % of control
dose: 50.0 mg/kg/injection, schedule: Q04DX003 (ip), vehicle: saline
  T/C: 115 % of control
dose: 100.0 mg/kg/injection, schedule: Q04DX003 (ip), vehicle: saline
  T/C: 110 % of control

## C=CCCC1CN2CCc3cc(OC)c(OC)cc3C2CC1=O (stereo unspecified)
[11]
  T/C: 113 % of control
[12]
  T/C: 103 % of control
[13]
  T/C: 105 % of control

## O=C(O)C(=O)O.O=N[O-].[Co+3].[NH-]CC[N-]CC[NH-]
dose: 25.0 mg/kg/injection, schedule: Q01DX009 (ip), vehicle: saline with Tween-80
  T/C: 108 % of control
[10]
  T/C: 108 % of control

## CSC(/C=N\O)=N/O
[11]
  T/C: 88 % of control
[12]
  T/C: 106 % of control
[13]
  T/C: 109 % of control

## CN(C)CCC1CC(O)CCC1(C)O (stereo unspecified)
dose: 50.0 mg/kg/injection, schedule: Q01DX005 (ip), vehicle: saline
  T/C: 98 % of control
dose: 100.0 mg/kg/injection, schedule: Q01DX005 (ip), vehicle: saline
  T/C: 100 % of control
dose: 200.0 mg/kg/injection, schedule: Q01DX005 (ip), vehicle: saline
  T/C: 102 % of control

## O=C(Nc1ncc([N+](=O)[O-])s1)c1cccnc1
dose: 3.12 mg/kg/injection, schedule: Q01DX009 (ip), vehicle: suspension in saline
  T/C: 101 % of control
dose: 6.25 mg/kg/injection, schedule: Q01DX009 (ip), vehicle: suspension in saline
  T/C: 87 % of control
dose: 12.5 mg/kg/injection, schedule: Q01DX009 (ip), vehicle: saline
  T/C: 91 % of control
dose: 12.5 mg/kg/injection, schedule: Q01DX009 (ip), vehicle: suspension in saline
  T/C: 87 % of control
[14]
  T/C: 100 % of control
[15]
  T/C: 88 % of control

## CCCCOc1ccc(-n2c(=O)[nH]c3ccccc3c2=O)cc1
[2]
  T/C: 96 % of control
[3]
  T/C: 100 % of control
[4]
  T/C: 96 % of control

## Cn1c(SCC(=O)O)nnc1C1CCC(=O)N1Cc1ccccc1 (stereo unspecified)
[7]
  T/C: 110 % of control
[8]
  T/C: 103 % of control
[9]
  T/C: 98 % of control

## O=C(O)CC1CC(O)CC/C1=N\Nc1ccc([N+](=O)[O-])cc1[N+](=O)[O-] (stereo unspecified)
[1]
  T/C: 102 % of control
[5]
  T/C: 98 % of control
[6]
  T/C: 91 % of control

## [N-]=[N+]=CC(=O)NC(Cc1ccccc1)C(=O)NN (stereo unspecified)
dose: 25.0 mg/kg/injection, schedule: Q01DX005 (ip), vehicle: Klucel (hydroxypropylcellulose) (HPC)
  T/C: 107 % of control
[2]
  T/C: 98 % of control
[3]
  T/C: 110 % of control

## COc1cc(OC)c(N=Cc2ccc(C=Nc3cc(Cl)c(OC)cc3OC)cc2)cc1Cl
[11]
  T/C: 100 % of control
[12]
  T/C: 89 % of control
[13]
  T/C: 86 % of control

## O=C(CSCc1c(F)cccc1Cl)Nc1ccc(F)c(Cl)c1
[7]
  T/C: 97 % of control
[8]
  T/C: 91 % of control
[9]
  T/C: 91 % of control

## CC1NNC(=O)C1(Br)Br (stereo unspecified)
dose: 6.25 mg/kg/injection, schedule: Q01DX009 (ip), vehicle: gum acacia
  T/C: 100 % of control
dose: 12.5 mg/kg/injection, schedule: Q01DX009 (ip), vehicle: gum acacia
  T/C: 91 % of control

## COC1C(CO)OC(Oc2ccc(C(=C3CCCCC3)c3ccc(O)cc3)cc2)C(O)C1O (stereo unspecified)
[14]
  T/C: 95 % of control
dose: 100.0 mg/kg/injection, schedule: Q01DX009 (ip), vehicle: saline
  T/C: 95 % of control
[15]
  T/C: 94 % of control

## Nc1n[n+](-c2ccccc2)no1
dose: 1.56 mg/kg/injection, schedule: Q01DX009 (ip), vehicle: water
  T/C: 110 % of control
dose: 1.56 mg/kg/injection, schedule: Q03HX015 (ip), vehicle: water
  T/C: 117 % of control
dose: 3.12 mg/kg/injection, schedule: Q01DX005 (ip), vehicle: water
  T/C: 104 % of control
dose: 3.12 mg/kg/injection, schedule: Q03HX015 (ip), vehicle: water
  T/C: 119 % of control
dose: 3.13 mg/kg/injection, schedule: Q01DX009 (ip), vehicle: water
  T/C: 104 % of control and 108 % of control and 117 % of control
dose: 3.13 mg/kg/injection, schedule: Q03HX015 (ip), vehicle: water
  T/C: 115 % of control
dose: 6.25 mg/kg/injection, schedule: Q01DX009 (ip), vehicle: saline
  T/C: 123 % of control
dose: 6.25 mg/kg/injection, schedule: Q01DX009 (ip), vehicle: water
  T/C: 117 % of control and 118 % of control
dose: 6.25 mg/kg/injection, schedule: Q03HX003 (ip), vehicle: water
  T/C: 112 % of control
dose: 12.5 mg/kg/injection, schedule: Q03HX003 (ip), vehicle: water
  T/C: 117 % of control
dose: 25.0 mg/kg/injection, schedule: Q01DX001 (ip), vehicle: water
  T/C: 104 % of control
dose: 25.0 mg/kg/injection, schedule: Q01DX009 (ip), vehicle: saline
  T/C: 178 % of control
dose: 25.0 mg/kg/injection, schedule: Q01DX009 (ip), vehicle: water
  T/C: 169 % of control and 189 % of control and 195 % of control
dose: 25.0 mg/kg/injection, schedule: Q03HX003 (ip), vehicle: water
  T/C: 117 % of control
dose: 25.0 mg/kg/injection, schedule: Q03HX015 (ip), vehicle: water
  T/C: 161 % of control and 183 % of control
dose: 50.0 mg/kg/injection, schedule: Q01DX001 (ip), vehicle: water
  T/C: 120 % of control
[14]
  T/C: 214 % of control
dose: 50.0 mg/kg/injection, schedule: Q03HX003 (ip), vehicle: water
  T/C: 123 % of control
dose: 100.0 mg/kg/injection, schedule: Q01DX001 (ip), vehicle: water
  T/C: 114 % of control
